Experimental data from PubChem BioAssay (NCI).
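The compound was tested at five concentrations on cells cultured in 96-well plates, with a 48-hour exposure period. TGI: total growth inhibition.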

Experiments:
Experiment in all cases: DTP human tumour cell line panel, 48 h
786-0 renal = tested on: 786-0 renal
A498 renal = tested on: A498 renal
A549 NSCLC = tested on: A549 NSCLC
ACHN renal = tested on: ACHN renal
CAKI-1 renal = tested on: CAKI-1 renal
CCRF-CEM leukemia = tested on: CCRF-CEM leukemia
COLO 205 colon = tested on: COLO 205 colon
DLD-1 colon = tested on: DLD-1 colon
DMS 114 small cell lung = tested on: DMS 114 small cell lung
DMS 273 small cell lung = tested on: DMS 273 small cell lung
HCC-2998 colon = tested on: HCC-2998 colon
HCT-15 colon = tested on: HCT-15 colon
HL-60(TB) leukemia = tested on: HL-60(TB) leukemia
HOP-18 NSCLC = tested on: HOP-18 NSCLC
HOP-62 NSCLC = tested on: HOP-62 NSCLC
HOP-92 NSCLC = tested on: HOP-92 NSCLC
HT29 colon = tested on: HT29 colon
IGROV1 ovarian = tested on: IGROV1 ovarian
K-562 leukemia = tested on: K-562 leukemia
KM12 colon = tested on: KM12 colon
KM20L2 colon = tested on: KM20L2 colon
LOX IMVI melanoma = tested on: LOX IMVI melanoma
LXFL 529 NSCLC = tested on: LXFL 529 NSCLC
M14 melanoma = tested on: M14 melanoma
M19-MEL melanoma = tested on: M19-MEL melanoma
MALME-3M melanoma = tested on: MALME-3M melanoma
MOLT-4 leukemia = tested on: MOLT-4 leukemia
NCI-H226 lung = tested on: NCI-H226 lung
NCI-H23 lung = tested on: NCI-H23 lung
NCI-H460 lung = tested on: NCI-H460 lung
OVCAR-3 ovarian = tested on: OVCAR-3 ovarian
OVCAR-4 ovarian = tested on: OVCAR-4 ovarian
OVCAR-5 ovarian = tested on: OVCAR-5 ovarian
RPMI-8226 leukemia = tested on: RPMI-8226 leukemia
RXF 393 renal = tested on: RXF 393 renal
RXF-631 renal = tested on: RXF-631 renal
SF-268 CNS = tested on: SF-268 CNS
SF-295 CNS = tested on: SF-295 CNS
SF-539 CNS = tested on: SF-539 CNS
SK-MEL-2 melanoma = tested on: SK-MEL-2 melanoma
SK-MEL-28 melanoma = tested on: SK-MEL-28 melanoma
SK-OV-3 ovarian = tested on: SK-OV-3 ovarian
SN12C renal = tested on: SN12C renal
SNB-75 CNS = tested on: SNB-75 CNS
SNB-78 CNS = tested on: SNB-78 CNS
SW-620 colon = tested on: SW-620 colon
U251 CNS = tested on: U251 CNS
UACC-257 melanoma = tested on: UACC-257 melanoma
UACC-62 melanoma = tested on: UACC-62 melanoma
UO-31 renal = tested on: UO-31 renal
XF 498 CNS = tested on: XF 498 CNS

O=C(OCc1ccccc1)N1N=NC2C3CC(OCc4ccccc4)(OCc4ccccc4)C(O3)C21 (stereo unspecified)
TGI (786-0 renal): > 100 µM
TGI (A498 renal): > 100 µM
TGI (A549 NSCLC): > 100 µM
TGI (ACHN renal): > 100 µM
TGI (CAKI-1 renal): > 100 µM
TGI (CCRF-CEM leukemia): > 100 µM
TGI (COLO 205 colon): 63 µM
TGI (DLD-1 colon): > 100 µM
TGI (DMS 114 small cell lung): 53.1 µM
TGI (DMS 273 small cell lung): 94.9 µM
TGI (HCC-2998 colon): 83.2 µM
TGI (HCT-15 colon): > 100 µM
TGI (HL-60(TB) leukemia): 32.6 µM
TGI (HOP-18 NSCLC): 94 µM
TGI (HOP-62 NSCLC): > 100 µM
TGI (HOP-92 NSCLC): 43.9 µM
TGI (HT29 colon): > 100 µM
TGI (IGROV1 ovarian): > 100 µM
TGI (K-562 leukemia): 73.6 µM
TGI (KM12 colon): > 100 µM
TGI (KM20L2 colon): > 100 µM
TGI (LOX IMVI melanoma): 42.8 µM
TGI (LXFL 529 NSCLC): > 100 µM
TGI (M14 melanoma): > 100 µM
TGI (M19-MEL melanoma): 77.6 µM
TGI (MALME-3M melanoma): 43.1 µM
TGI (MOLT-4 leukemia): 60.7 µM
TGI (NCI-H226 lung): 41.8 µM
TGI (NCI-H23 lung): 38.9 µM
TGI (NCI-H460 lung): > 100 µM
TGI (OVCAR-3 ovarian): 59.6 µM
TGI (OVCAR-4 ovarian): > 100 µM
TGI (OVCAR-5 ovarian): 70.4 µM
TGI (RPMI-8226 leukemia): > 100 µM
TGI (RXF 393 renal): 35.6 µM
TGI (RXF-631 renal): > 100 µM
TGI (SF-268 CNS): 87.7 µM
TGI (SF-295 CNS): > 100 µM
TGI (SF-539 CNS): > 100 µM
TGI (SK-MEL-2 melanoma): 33 µM
TGI (SK-MEL-28 melanoma): 55.1 µM
TGI (SK-OV-3 ovarian): > 100 µM
TGI (SN12C renal): > 100 µM
TGI (SNB-75 CNS): 82.4 µM
TGI (SNB-78 CNS): > 100 µM
TGI (SW-620 colon): 80.5 µM
TGI (U251 CNS): > 100 µM
TGI (UACC-257 melanoma): 41.4 µM
TGI (UACC-62 melanoma): 61.4 µM
TGI (UO-31 renal): 28.4 µM
TGI (XF 498 CNS): 53.4 µM
